This is an account of results in publication PMC9605374 (Marine Drugs, 2022).

Bounds are passed on as bounds.

The test system of one data set is LNCaP. Set-up: method as in PMID 27355960. The conditions noted are these: cited from earlier work.
Another data set relates to PC3-DR cells. Put plainly: Drug combination study NB with docetaxel, MTT assay, SynergyFinder 2.0. The class given is cell-based. As to conditions: Homo sapiens, 24 h. The protocol: Thus, drug-resistant PC3-DR cells were treated with docetaxel in combination with NB (Figure 9). Potential synergism between NB and docetaxel was measured by the Chou–Talalay method as described before.
Figure 9 Combinational treatment on PC3-DR cells with NB and docetaxel. […] MTT assay was used to examine cellular viability. Number of replicates n = 3. (A) The heatmap represents cytotoxicity (viability inhibition) of the individual drugs or their combinations. (B,C) To calculate and visualize in 2D (B) or 3D (C) the effect of the drug combination (synergism/additive effect/antagonism), the SynergyFinder v. 2.0 software (Network Pharmacology for Precision Medicine in the Research Program of System Oncology, Faculty of Medicine at University of Helsinki, Helsinki, Finland) and a ZIP reference model were used. Green regions indicate antagonism, white regions refer to additive effect, and red regions indicate synergism.
(§1) The experiments were carried out as previously reported. […] 22Rv1 cells (6 × 10^3 cells/well in 96-well plates) were simultaneously treated with NB and docetaxel; or pretreated with MAPK inhibitors for 1 h following treatment with NB in the total media volume of 100 µL/well. Following 24 h of incubation, the viability of the cells treated with individual drugs as well as their combinations was determined using MTT assay. […] Red areas (positive δ-values) and green areas (negative δ-values) indicate synergism and antagonism, respectively.
On the technique in general: Tetrazolium dyes change colour on reduction, which living cells bring about.

Another data set deals with 22Rv1 cells. The experiment in a line: Drug combination study NB with MAPK inhibitors, MTT assay, SynergyFinder 2.0. The class given is cell-based. The conditions noted are these: Homo sapiens, 22Rv1, 24 h, 24 h; for inhibition at 0.8 µM: 22Rv1, NB alone 0.8 μM; for inhibition at 3.1 µM: 22Rv1, NB alone 3.1 μM; for inhibition at 12.5 µM: 22Rv1, NB alone 12.5 μM; for inhibition at 50 µM: 22Rv1, NB alone 50 μM.
From the text: Whether activation of MAPKs contribute to cell death or survival depends not only on the cellular context, but also on the nature of the activating stimuli. Thus, to reveal the function of JNK1/2 and p38 in the anticancer effect of NB, we co-treated 22Rv1 cells with NB and specific inhibitors of the above-mentioned MAPKs. […] As MEK1/2 kinase directly and exclusively activates ERK1/2, PD98039 inhibitor is often used as an ERK1/2 inhibitor [38]. Thus, an inactivation of MEK1/2 leads solely to an inhibition of ERK1/2 [38]. Since the inhibitors themselves exert cytotoxic effects in cancer cells, we used a Chou–Talalay method to distinguish between synergism, additive effects, or antagonistic effects of the particular MAPK inhibitor on the compound bioactivity. For this, using an MTT assay, we determined a cytotoxic effect on various concentrations of NB, MAPK inhibitors, and their combinations in 22Rv1 cells. The viability data were further analyzed using the SynergyFinder v. 2.0 software (Network Pharmacology for Precision Medicine in the Research Program of System Oncology, Faculty of Medicine at University of Helsinki, Helsinki, Finland) and a Zero interaction potency (ZIP) reference model (Figure 7).
as §1

The test system of the next data set is splenocytes. More on the design: method as in PMID 27355960. The conditions noted are these: cited from earlier work.
The next data set relates to prostate cancer cells. Put plainly: MTT assay, mean IC50 in cancer cell panel and selectivity index. The class given is cell-based, human. The source says: (§2) To examine the anticancer potential and selectivity of NB, we used a panel of six human prostate cancer cell lines, harboring different levels of treatment resistance to representatively reflect the heterogeneity of the disease. […] Additionally, four human noncancer cells lines were utilized in order to determine the selectivity of NB towards prostate cancer cells, i.e., prostate noncancer PNT2 and RWPE-1 cells, human embryonic kidney HEK 293T cells, and human fibroblasts MRC-9. The different cell lines were treated with NB and the cell viability was examined using MTT assay (Figure 1). The mean IC50 of NB and docetaxel (used as a reference substance) in noncancerous cell lines was divided by the mean IC50 in the prostate cancer cell lines to determine the selectivity index (SI).
(§3) The MTT assay was used to monitor the effect of the drugs on cell viability in terms of metabolic activity, as previously reported. First, preincubation of the cells in 96-well plates (6 × 10^3 cells/well in 100 μL/well) was performed overnight in the correspondent culture medium. Next, the medium was exchanged for fresh medium containing the investigated compounds or a vehicle (100 μL/well). Cells were then incubated for 48 h, unless otherwise stated. Then, 10 μL/well of 3-(4,5-dimethylthiazol-2-yl)-2,5-diphenyltetrazolium bromide reagent (MTT, 5 mg/mL) were added. After 2–4 h of additional incubation the media was removed, and the plates were dried. Finally, 50 μL/well of DMSO were added to solve the formed formazan crystals produced by the metabolic active cells and Infinite F200PRO reader (TECAN, Männedorf, Switzerland) was used to measure the cell viability. The results were proceeded with a GraphPad Prism software v.9.1.1 (GraphPad Software, San Diego, CA, USA). Cells treated with the solvent of the drugs alone were used as a control (100% alive cells). The effect of the drugs on cell viability is represented as IC50.

In another data set the test system is PC3-DR. Put plainly: MTT assay, cell viability. Format: cell-based, human.
From the text: as §2, §3

The test system of data set [1] is panel of 14 human cancer cell lines and one prostate cancer cell line DU145. Set-up: method as in PMID 26039736. The conditions noted are these: panel of 14 human cancer cell lines and DU145, no significant anticancer activity; cited from earlier work.
The next data set deals with Artemia salina. Set-up: method as in PMID 26039736. The conditions noted are these: cited from earlier work.

As a reminder, the IC50 is the midpoint of a concentration-inhibition curve. By inhibition is commonly meant the change of the read-out against control, counted positive when it falls.

Consider `COc1ccc(C2SSC34CC5(O)C(Cl)C=CC(O)C5ON3C(=O)C2N(C)C4=O)c(O)c1OC` (stereo not drawn) [NB, N-methylpretrichodermamide B], for which the IC50 in the data set with LNCaP is 1.76 µM. In the data set with PC3-DR cells, the inhibition at 0.22 µM turned out to be 9.85%, the inhibition at 0.67 µM turned out to be 15.5%, the inhibition at 2 µM was 14.3% and the inhibition at 6 µM is 17.2%. Moreover, in the data set on 22Rv1 cells (matrix with PD98059 (0 μM)), the inhibition at 0.8 µM was 28.5%, the inhibition at 3.1 µM stood at 35.2%, the inhibition at 12.5 µM came out at 43.4% and the inhibition at 50 µM was 51.9%. Further, in the data set on 22Rv1 cells (matrix with SB203580 (0 μM)), the inhibition at 0.8 µM worked out at 29.1%, the inhibition at 3.1 µM was determined as 33.3%, the inhibition at 12.5 µM was 48.2% and the inhibition at 50 µM was 54.9%. In the data set with 22Rv1 cells (matrix with SP600125 (0 μM)), the inhibition at 0.8 µM was found to be 17.3%, the inhibition at 3.1 µM turned out to be 25.2%, the inhibition at 12.5 µM is 40.5% and the inhibition at 50 µM was 41%. In addition, in the data set on splenocytes, the “ID50, cytotoxic activity in splenocytes” value is recorded as 62.1 µM. The compound also returned an IC50 in the data set on prostate cancer cells (Homo sapiens, mean over PC3, PC3-DR, DU145, 22Rv1, VCaP, LNCaP, 48 h, MTT) of 6.46 µM. Also, the “Selectivity Index (SI)” value with prostate cancer cells ([mean IC50 in noncancer cells]/[mean IC50 in cancer cells]) is 2.4. The “IC50 in PC3-DR compared to the parental PC3 cells” value in the data set on PC3-DR (48 h) was “twofold lower”. In the data set on PC3-DR (Homo sapiens, PC3-DR, 48 h of treatment, mean ± SD), this compound had a half-inhibitory concentration (IC50) of 3.63 ± 1.03 µM. In addition, the half-inhibitory concentration (IC50) in data set [1] was over 10 µM. For the same compound, the LD50 with Artemia salina is recorded as 4.8 µM.
